From patent US20230256092A1, “COMBINED USE OF ANTI-CCR8 ANTIBODY AND CHEMOTHERAPEUTIC AGENT” (Shionogi & Co., Ltd., priority 2020, published 2023)

What was measured:
Type in all cases: in vivo, mouse
[1] = tested on: colon cancer-derived Colon26 cells; experiment: Example 5: Balb/c mice inoculated with Colon26 cells, oxaliplatin or 5-FU combination; settings: antibody 50 μg iv day 5; oxaliplatin 5 mg/kg or 5-FU 30 mg/kg iv 1 hour later; oxaliplatin and antibody single 4, 7, 10, 12, 14, 17 days; 5-FU single only 7 days; combinations from 10 days; Mann-Whitney U
Method: The back of each Balb/c mouse (5 weeks old, female) was intracutaneously inoculated with 3.5×10^5 colon cancer-derived Colon26 cells (50 μL).
To an anti-mouse CCR8 antibody single administration group, 50 μg (200 μL) of an anti-mouse CCR8 antibody (clone SA214G2, BioLegend, Inc.) was intravenously administered 5 days after tumor inoculation, and saline was intravenously administered at a volume of 10 ml/kg body weight 1 hour after the administration of the anti-mouse CCR8 antibody (N=10).
To an oxaliplatin single administration group, 50 μg (200 μL) of an isotype control antibody was intravenously administered 5 days after tumor inoculation, and oxaliplatin (trade name: ELPLAT, Yakult Honsha Company, Limited) at 5 mg/kg body weight was intravenously administered at a volume of 10 mL/kg body weight 1 hour after the administration of the isotype control antibody (N=10). […]
Tumor volumes were measured every 2 to 3 days from 4 days after tumor inoculation (a day before antibody administration). The tumor volume (mm^3) was measured in long diameter (mm)×short diameter (mm)×short diameter (mm)/2, and a significant difference test based on a Mann-Whitney U method (significance level: P<0.05) was conducted.

[2] = tested on: colon cancer-derived CT26 cells; experiment: Example 12: hCCR8-KI (KI/KI) mice inoculated with CT26 cells, 5-FU combination; settings: antibody 0.1 mg/kg iv day 5; 5-FU 30 mg/kg iv 3 hours later; single groups 8, 12, 15 days, combined from 8 days; Mann-Whitney U
Method: The back of each hCCR8-KI (KI/KI) mouse (14 weeks old, female) prepared in Test Example 10 was intracutaneously inoculated with 3.5×10^5 colon cancer-derived CT26 cells (50 μL).
To an anti-human CCR8 antibody single administration group, an anti-human CCR8 antibody (humanized 10A11 antibody (light chain variable region: IGKV4-1 N53Q+G29R (SEQ ID NO: 59)/heavy chain variable region: IGHV3-15 T94R (SEQ ID NO: 41)) was intravenously administered at 0.1 mg/kg body weight 5 days after tumor inoculation, and saline was intravenously administered 3 hours after the administration of the anti-human CCR8 antibody (N=8). To a 5-FU single administration group, a saline was intravenously administered 5 days after tumor inoculation, and 5-FU (trade name: 5-FU INJECTION 250 KYOWA, Kyowa Hakko Kirin Co. Ltd) was intravenously administered at 30 mg/kg body weight 3 hours after the administration of the saline (N=8). […] Tumor volumes were measured every 3 to 4 days from […] after tumor inoculation (a day before antibody administration). The tumor volume (mm^3) was measured in long diameter (mm)×short diameter (mm)×short diameter (mm)/2, and a significant difference test based on a Mann-Whitney U method (significance level: P<0.05) was conducted.

[3] = tested on: colon cancer-derived Colon26 cells; experiment: Example 6: hCCR8-KI (KI/KI) mice inoculated with Colon26 cells, oxaliplatin combination; settings: antibody 15 mg/kg iv day 5; oxaliplatin 5 mg/kg iv 3 hours later; single groups 4, 7, 10, 12, 14, 17, 18 days, combined from 7 days; Mann-Whitney U
Method: The back of each hCCR8-KI (KI/KI) mouse (12 weeks old, female) prepared in Test Example 10 was intracutaneously inoculated with 3.5×10^5 colon cancer-derived Colon26 cells (50 uL).
To an anti-human CCR8 antibody single administration group, an anti-human CCR8 antibody (humanized 10A11 antibody (light chain variable region: IGKV4-1 N53Q+G29R (SEQ ID NO: 59)/heavy chain variable region: IGHV3-15 T94R (SEQ ID NO: 41))) at 15 mg/kg body weight was intravenously administered 5 days after tumor inoculation, and saline was intravenously administered 3 hours after the administration of the anti-human CCR8 antibody (N=10). To an oxaliplatin single administration group, saline was intravenously administered 5 days after tumor inoculation, and oxaliplatin (trade name: ELPLAT, Yakult Honsha Company, Limited) at 5 mg/kg body weight was intravenously administered 3 hours after the administration of the saline (N=10). […] Tumor volumes were measured every 1 to 3 days from 4 days after tumor inoculation (a day before antibody administration). The tumor volume (mm^3) was measured in long diameter (mm)×short diameter (mm)×short diameter (mm)/2, and a significant difference test based on a Mann-Whitney U method (significance level: P<0.05) was conducted.

[4] = tested on: colon cancer-derived Colon26 cells; experiment: Example 11: hCCR8-KI (KI/KI) mice inoculated with Colon26 cells, oxaliplatin combination (Part 2); settings: as Example 6; 2-7B part: oxaliplatin 10, 14, 17 days, antibody 14, 17 days; 19D7 part: oxaliplatin 10, 14 days, antibody 14 days; combinations from 10 days; Student's T one-sided
Method: To an oxaliplatin single administration group, saline was intravenously administered 5 days after tumor inoculation, and oxaliplatin (trade name: ELPLAT, Yakult Honsha Company, Limited) at 5 mg/kg body weight was intravenously administered 3 hours after the administration of the saline (N=10). To an anti-mouse CCR8 antibody and oxaliplatin combined administration group, an anti-human CCR8 antibody at 15 mg/kg body weight was intravenously administered 5 days after tumor inoculation, and oxaliplatin at 5 mg/kg body weight was intravenously administered 3 hours after the administration of the anti-mouse CCR8 antibody (N=10). To a control group, saline was intravenously administered 5 days after tumor inoculation, and saline was intravenously administered 3 hours after the administration of the saline (N=10). […] Tumor volumes were measured every 1 to 3 days from 4 days after tumor inoculation (a day before antibody administration). The tumor volume (mm^3) was measured in long diameter (mm)×short diameter (mm)×short diameter (mm)/2, and a significant difference test based on a Mann-Whitney U method (significance level: P<0.05) was conducted. […]

| Structure (SMILES) | tumor volume as compared to the control group [1] | tumor volume as compared to the control group [2] | tumor volume as compared to the control group [3] | tumor volume as compared to the control group [4] |
| --- | --- | --- | --- | --- |
| O=c1[nH]cc(F)c(=O)[nH]1 [5-FU, fluorouracil, reference compound] | significant decrease | no significant decrease | – | – |
| O=C1[O][Pt]2([NH][C@@H]3CCCC[C@H]3[NH]2)[O]C1=O [oxaliplatin, reference compound] | no significant decrease | – | no significant decrease | no significant decrease |
